In patent US11879140B2, “P21 mRNA targeting DNAzymes” (1E Therapeutics Ltd., priority 2020, dated 2024):

Test system: human p21 mRNA
Test: In vitro cleavage assay of human p21 mRNA
Type: biochemical
Conditions: in vitro cleavage of p21 mRNA (SEQ ID NO: 1); RNA substrate 500 nM, 37° C. 60 min, agarose gel
Source text: Total RNA was isolates from senescent IMR-90 cells using Nucleospin® RNA kit (Macherey-Nagel™). cDNA was synthesized with gene-specific reverse primers using M-MLV Reverse Transcriptase (Promega), according to the manufacturer's protocol. To generate template for in vitro transcription (IVT) reaction, the cDNA was PCR amplified using KAPA Taq EXtra HotStart® ReadyMix™ PCR Kit (R&D). PCR product was run on 1.5% agarose TAE gel, the correct band size was cut and DNA was cleaned using Wizard® SV Gel and PCR Clean-Up System kit (Promega). IVT was performed using HiScribe™ T7 High Yield RNA Synthesis Kit (NEB). Samples were then treated with DNase I (New England Biolabs) and incubated for 15 minutes at 37° C. IVT product was run on 1.5% agarose TBE gel, the correct band size was cut and RNA was cleaned using QIAquick® Gel Extraction Kit (Qiagen). See primer sequences in Table 1, below.
RNA substrate was diluted with Molecular Biology Grade Water (Biological Industries) and used in in vitro cleavage assay. A 20 μl reaction system comprising RNA substrate (final concentration 500 nM), 2 μl 10× reaction buffer (50 mM Tris-HCl pH 7.4, 100 mM NaCl, 10 mM MgCl2) and 1 μl DNAzyme (10 μM) (as depicted in Table 2, below) was mixed. Reactions were incubated at 37° C. for 60 min. 2×RNA L.D. (Thermo Fisher) was added to each sample. Samples were heated at 70° C. for 30 sec, centrifuged and loaded onto 1.5% agarose TBE gels. Quantification was performed using Image Lab software (Bio Rad).

DNAzyme 1851: SEQ ID NO: 64: GTGCCACCAggctagctacaacgaATGGGACCC (DNA GTGCCACCAGGCTAGCTACAACGAATGGGACCC; DNA, backbone and methylation of C not given here)
Validated cleavage: validated for mediating cleavage of p21 mRNA

DNAzyme 1116: SEQ ID NO: 41: AAAGGAGAAggctagctacaacgaACGGGAUGA (DNA AAAGGAGAAGGCTAGCTACAACGAACGGGAUGA; DNA, backbone, methylation of C and T or U not given here)
Validated cleavage: validated for mediating cleavage of p21 mRNA

DNAzyme 541: SEQ ID NO: 30: GCUCCCAGGggctagctacaacgaGAAGUCACC (DNA GCUCCCAGGGGCTAGCTACAACGAGAAGUCACC; DNA, backbone, methylation of C and T or U not given here)
Validated cleavage: validated for mediating cleavage of p21 mRNA

DNAzyme 1013: SEQ ID NO: 38: TAATTCTAAggctagctacaacgaGCCAGAGGC (DNA TAATTCTAAGGCTAGCTACAACGAGCCAGAGGC; DNA, backbone and methylation of C not given here)
Validated cleavage: validated for mediating cleavage of p21 mRNA

DNAzyme 1854: SEQ ID NO: 65: CCTGTGCCAggctagctacaacgaCACATGGGA (DNA CCTGTGCCAGGCTAGCTACAACGACACATGGGA; DNA, backbone and methylation of C not given here)
Validated cleavage: validated for mediating cleavage of p21 mRNA

DNAzyme 1736: SEQ ID NO: 58: CCATTGAGtccgagccggacgaGGGGGTGGG (DNA CCATTGAGTCCGAGCCGGACGAGGGGGTGGG; DNA, backbone and methylation of C not given here)
Validated cleavage: validated for mediating cleavage of p21 mRNA

DNAzyme 495: SEQ ID NO: 29: GAAGTTCCAggctagctacaacgaCGCTCACGG (DNA GAAGTTCCAGGCTAGCTACAACGACGCTCACGG; DNA, backbone and methylation of C not given here)
Validated cleavage: validated for mediating cleavage of p21 mRNA

DNAzyme 2266: SEQ ID NO: 78: AGAGGTTTAggctagctacaacgaAGTCTAGGT (DNA AGAGGTTTAGGCTAGCTACAACGAAGTCTAGGT; DNA, backbone and methylation of C not given here)
Validated cleavage: validated for mediating cleavage of p21 mRNA

DNAzyme 1455: SEQ ID NO: 45: AGGGGGGTAggctagctacaacgaCAAGAGCCA (DNA AGGGGGGTAGGCTAGCTACAACGACAAGAGCCA; DNA, backbone and methylation of C not given here)
Validated cleavage: validated for mediating cleavage of p21 mRNA

DNAzyme 1504: SEQ ID NO: 47: GGGGTGGTtccgagccggacgaGCTCCAGGA (DNA GGGGTGGTTCCGAGCCGGACGAGCTCCAGGA; DNA, backbone and methylation of C not given here)
Validated cleavage: validated for mediating cleavage of p21 mRNA

DNAzyme 1742: SEQ ID NO: 59: TCCAGTCCAggctagctacaacgaTGAGCTGGG (DNA TCCAGTCCAGGCTAGCTACAACGATGAGCTGGG; DNA, backbone and methylation of C not given here)
Validated cleavage: validated for mediating cleavage of p21 mRNA

DNAzyme 1986: SEQ ID NO: 72: GCAATGAAtccgagccggacgaGGGGAGGGA (DNA GCAATGAATCCGAGCCGGACGAGGGGAGGGA; DNA, backbone and methylation of C not given here)
Validated cleavage: validated for mediating cleavage of p21 mRNA

DNAzyme 1967: SEQ ID NO: 70: TGGGGTGGAggctagctacaacgaGAGGAAGGT (DNA TGGGGTGGAGGCTAGCTACAACGAGAGGAAGGT; DNA, backbone and methylation of C not given here)
Validated cleavage: validated for mediating cleavage of p21 mRNA

DNAzyme 1991: SEQ ID NO: 74: AAAGTGCAAggctagctacaacgaGAACTGGGG (DNA AAAGTGCAAGGCTAGCTACAACGAGAACTGGGG; DNA, backbone and methylation of C not given here)
Validated cleavage: validated for mediating cleavage of p21 mRNA

DNAzyme 1987: SEQ ID NO: 73: TGCAATGAAggctagctacaacgaTGGGGAGGG (DNA TGCAATGAAGGCTAGCTACAACGATGGGGAGGG; DNA, backbone and methylation of C not given here)
Validated cleavage: validated for mediating cleavage of p21 mRNA

DNAzyme 1719: SEQ ID NO: 57: GGGGTGGGAggctagctacaacgaAGGCACCTC (DNA GGGGTGGGAGGCTAGCTACAACGAAGGCACCTC; DNA, backbone and methylation of C not given here)
Validated cleavage: validated for mediating cleavage of p21 mRNA

DNAzyme 1467: SEQ ID NO: 46: TTCACAAGAggctagctacaacgaAGAGGGGGG (DNA TTCACAAGAGGCTAGCTACAACGAAGAGGGGGG; DNA, backbone and methylation of C not given here)
Validated cleavage: validated for mediating cleavage of p21 mRNA

DNAzyme 846: SEQ ID NO: 33: GTGGGCGGAggctagctacaacgaTAGGGCTTC (DNA GTGGGCGGAGGCTAGCTACAACGATAGGGCTTC; DNA, backbone and methylation of C not given here)
Validated cleavage: validated for mediating cleavage of p21 mRNA

DNAzyme 1641: SEQ ID NO: 53: AGAGGGGAAggctagctacaacgaTGCAGAGCC (DNA AGAGGGGAAGGCTAGCTACAACGATGCAGAGCC; DNA, backbone and methylation of C not given here)
Validated cleavage: validated for mediating cleavage of p21 mRNA

DNAzyme 1976: SEQ ID NO: 71: GGGGAGGGAggctagctacaacgaGGGGTGGAT (DNA GGGGAGGGAGGCTAGCTACAACGAGGGGTGGAT; DNA, backbone and methylation of C not given here)
Validated cleavage: validated for mediating cleavage of p21 mRNA

DNAzyme 354: SEQ ID NO: 23: CGGTTCTGAggctagctacaacgaATGGCGCCT (DNA CGGTTCTGAGGCTAGCTACAACGAATGGCGCCT; DNA, backbone and methylation of C not given here)
Validated cleavage: validated for mediating cleavage of p21 mRNA

DNAzyme 1252: SEQ ID NO: 42: GGGGGTGAAggctagctacaacgaTTCATAACC (DNA GGGGGTGAAGGCTAGCTACAACGATTCATAACC; DNA, backbone and methylation of C not given here)
Validated cleavage: validated for mediating cleavage of p21 mRNA

DNAzyme 974: SEQ ID NO: 35: GGGTATGTAggctagctacaacgaATGAGGAGG (GGGTATGTAGGCTAGCTACAACGAATGAGGAGG; DNA, backbone and methylation of C not given here)
Validated cleavage: validated for mediating cleavage of p21 mRNA

DNAzyme 1524: SEQ ID NO: 48: GAGGGGCCAggctagctacaacgaGAGGGCAGG (DNA GAGGGGCCAGGCTAGCTACAACGAGAGGGCAGG; DNA, backbone and methylation of C not given here)
Validated cleavage: validated for mediating cleavage of p21 mRNA

DNAzyme 1683: SEQ ID NO: 55: AGAGGGTAtccgagccggacgaGAAGGGAAA (DNA AGAGGGTATCCGAGCCGGACGAGAAGGGAAA; DNA, backbone and methylation of C not given here)
Validated cleavage: validated for mediating cleavage of p21 mRNA

DNAzyme 1684: SEQ ID NO: 56: GAGAGGGTAggctagctacaacgaTGAAGGGAA (DNA GAGAGGGTAGGCTAGCTACAACGATGAAGGGAA; DNA, backbone and methylation of C not given here)
Validated cleavage: validated for mediating cleavage of p21 mRNA

DNAzyme 1003: SEQ ID NO: 37: GCCAGAGGtccgagccggacgaGGGGGGCAG (DNA GCCAGAGGTCCGAGCCGGACGAGGGGGGCAG; DNA, backbone and methylation of C not given here)
Validated cleavage: validated for mediating cleavage of p21 mRNA

DNAzyme 1947: SEQ ID NO: 69: GCTGGACGAggctagctacaacgaTTGAGGGGC (DNA GCTGGACGAGGCTAGCTACAACGATTGAGGGGC; DNA, backbone and methylation of C not given here)
Validated cleavage: validated for mediating cleavage of p21 mRNA

DNAzyme 1838: SEQ ID NO: 63: GGACCCTCAggctagctacaacgaCCCCACAGC (DNA GGACCCTCAGGCTAGCTACAACGACCCCACAGC; DNA, backbone and methylation of C not given here)
Validated cleavage: validated for mediating cleavage of p21 mRNA
